From patent US9970037B2, “Methods and materials for making simvastatin and related compounds” (The Regents of the University of California, priority 2006, dated 2018)
Several values for one entry are separate records, joined by “and”; a condition that tells them apart may be missing. Equal entries are not always repeated.

Key:
LovD = target: T1, LovD (Aspergillus terreus, UniProt Q9Y7D1); settings: label = product formed
T1 sequence (Q9Y7D1 1-413): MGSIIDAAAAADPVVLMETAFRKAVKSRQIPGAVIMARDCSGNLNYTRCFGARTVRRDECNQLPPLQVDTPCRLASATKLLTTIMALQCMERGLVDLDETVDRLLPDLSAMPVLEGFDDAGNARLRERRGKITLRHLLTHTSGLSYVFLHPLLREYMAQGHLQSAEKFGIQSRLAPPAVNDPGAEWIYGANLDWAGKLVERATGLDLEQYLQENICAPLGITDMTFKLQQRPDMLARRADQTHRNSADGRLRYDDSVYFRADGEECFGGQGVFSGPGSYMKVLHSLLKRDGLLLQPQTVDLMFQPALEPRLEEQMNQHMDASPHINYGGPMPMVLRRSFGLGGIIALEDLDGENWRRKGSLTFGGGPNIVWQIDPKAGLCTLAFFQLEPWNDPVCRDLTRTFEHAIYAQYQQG
Procedure: Assay conditions: 1 mM monacolin J, 10 mM acyl-SNAC, 100 uM LovD, 50 mM HEPES, pH 7.9, 25 degrees C., 6 hrs.

E. coli = assay: Whole-cell based hydrolysis / stability of thioester in E. coli cultures; set-up: species or system Escherichia coli; settings: BL21(DE3)/pAW31 culture, 18° C., 24 hours
Procedure: The selected 57 mutants from the Keio collection together with BW25113, BL21(DE3) and BL21(DE3)/pAW31 were grown to saturation in a 96-well deep well plate in 1 mL LB media at 37° C. Neat DMB-S-MMP (5 μL) was added to each culture with a final concentration of 20 mM. […] The organic phase was dried, redissolved in 20 μL acetonitrile (CH3CN), and 1 μL was spotted on a TLC plate (silica gel 60 F254). The TLC plates were developed with 20% EA in hexane and visualized with iodine.
Analysis of the compounds were also performed with HPLC using an analytical C18 column (Alltech Apollo 5 u, 150 mm×4.6 mm); linear gradient: 60% CH3CN in water (0.1% trifluoroacetic acid [TFA]) to 95% CH3CN in water (0.1% TFA) over 5 min, 95% CH3CN in water (0.1% TFA) for 10 minutes, with a flow rate of 1 mL/min. HPLC retention times (tR) were as follows: MJ lactone form: 3.40 min; DMB-S-MPA: 3.82 min; DMB-S-MMP: 6.80 min; simvastatin lactone form: 8.45 min. Both MJ and simvastatin acids were lactonized before HPLC analysis.
The mutants, wild type […] and BL21(DE3) were grown to saturation in LB broth in a 96-well plate. […] The cultures were acidified, extracted with ethyl acetate, and the organic phases were analyzed by thin layer chromatography (TLC) using a mobile phase (20% ethyl acetate in hexane) that enabled separation of DMB-S-MMP and DMB-S-MPA (FIG. 14A). […]

E. coli BL21(DE3)/pAW31 = assay: Whole cell biocatalysis with E. coli overexpressing LovD; type: cell-based, Escherichia coli
Procedure: The BL21(DE3)/pAW31 overexpression strain was grown in a shake flask (200 mL) to an OD600 of 1.0, at which time 1 mM IPTG, 0.8 mM monacolin J and 4 mM of either benzoyl-SNAC or benzoyl-SMTG were added to the culture. Expression of LovD and bioconversion was performed at 18° C. The culture was extracted and analyzed for the formation of 8-benzoyl-monacolin J. When supplemented with benzoyl-SNAC, 84% conversion of monacolin J was detected within 20 hours post-induction. The product was lactonized and purified by a single silica-gel chromatography step. The NMR spectra confirmed the regioselective benzoylation of the C8 hydroxyl group as the diagnostic H8 multiplet is shifted downfield to δ 5.61.
Fermentation conditions: 500 mL culture with LB media with 30 mg/L kanamycin. At OD600 of 1.0, cells were concentrated to a final OD600 of 5.0 and induced with 1 mM IPTG. Substrates monacolin J and α-dimethylbutyryl-SNAC were added to a final concentration of 1 mM and 4 mM. At different time points, culture samples were collected, centrifuged, filtered and injected on to HPLC (20 μL). Extraction conditions: When maximum conversion was reached, the broth was acidified to pH of 2.0, extracted with ethyl acetate, dried and redissolved in toluene.
(§1) Whole-cell catalytic synthesis of simvastatin acid from MJ acid and DMB-S-MMP were performed as described (see, e.g., Xie et al., (2007) Appl Environ Microbiol 73: 2054-2060). The E. coli BL21(DE3)/pAW31 and YT2/pAW31 strains were cultured side-by-side for comparison. A single colony of the freshly transformed strains was used to inoculate a 5 mL LB culture supplemented with 35 mg/L kanamycin and grown overnight at 37° C. The next morning, 100 μL of the overnight culture was inoculated into 50 mL cultures containing LB broth, F1 minimal medium and F1 medium supplemented with 0.15 mg/L biotin. Growth rates were monitored by periodically measuring the OD600 reading. When OD600 reached ˜0.5, 100 μM IPTG was added to the culture and expression of LovD was performed at 20° C. for 16 hours. To mimic high density fermentation conditions, the cells were concentrated 10-fold before addition of substrates. Typically, a 14 mL aliquot of the culture was transferred to a 15 mL centrifuge tube and the cells were collected by centrifugation (4° C., 4000 g, 10 minutes). The cell pellet was gently resuspended in 1316 μl of the supernatant, followed by addition of 84 μl of a MJ acid stock solution (250 mM in H2O) (final concentration 15 mM). The concentrated culture was then separated into seven 200 μL samples and 1.2 μL of pure DMB-S-MMP was added to each sample (final concentration ˜25 mM). The culture was then shaken at 300 rpm at room temperature. At each time point, a total extraction was performed by adding 10 μL 20% SDS to lyse the cells, followed by liquid-liquid extraction with 500 μL EA/1% AcOH. The organic phase was removed, evaporated, and redissolved in 50 μL ACN for HPLC analysis. For the BL21(DE3) sample, an additional 1.2 μL aliquot of DMB-S-MMP was added after 12 hours to replenish the hydrolyzed substrates.
The E. coli BL21(DE3)/pAW31 strain was grown in LB medium at 37° C. to an OD600 of 0.5, at which time 100 μM IPTG was added to the culture and expression was performed at RT for 16 hours. A 10 ml culture was transferred to a 15 mL centrifuge tube. The cells were collected by centrifugation (4000 g, 10 minutes). The cell pellet was resuspended in 957 μl of the supernatant. The pH was adjusted to pH 7.9 with 1.0 N NaOH, followed by addition of 33 μl 450 mM MJ (final concentration 15 mM) and 6 μl pure DMB-S-MMP (final concentration ˜25 mM). The culture was then shaken at 300 rpm at room temperature. At each time point, a 4 μL aliquot was removed from the reaction mixture, quenched in 300 μL ethyl acetate containing 1% TFA.

YT2/pAW31 = assay: Whole cell biocatalysis with ΔbioH E. coli overexpressing LovD; type: cell-based, Escherichia coli; settings: 15 mM MJ acid, 25 mM DMB-S-MMP, less than 12 hours
Procedure: as §1, with “The culture was then shaken at 300 rpm at room temperature. At each time point, a total extraction was performed by adding 10 μL 20% SDS to lyse the cells, followed by liquid-liquid extraction with 500 μL EA/1% AcOH. The organic phase was removed, evaporated, and redissolved in 50 μL ACN for HPLC analysis. For the BL21(DE3) sample, an additional 1.2 μL aliquot of DMB-S-MMP was added after 12 hours to replenish the hydrolyzed substrates.” left out

[1] = substrate: CC[C@H](C)C(=O)O[C@H]1C[C@@H](C)C=C2C=C[C@H](C)[C@H](CC[C@@H]3C[C@@H](O)CC(=O)O3)[C@H]21; assay: LovD catalyzed hydrolysis of lovastatin / simvastatin to monacolin J, HPLC; type: biochemical, Aspergillus terreus; settings: other: statin as the only substrate; pH 7.9; 25.0 °C
Procedure: FIG. 5. […] (B) Conversion as a function of time for (⋄) butyryl-CoA (♦) butyryl-SNAC, (▪) butyryl-SMTG. The apparent kcat values reported throughout the text are initial turnover rates in the linear range. (C) Michaelis-Menten plot of LovD catalyzed hydrolysis of lovastatin to monacolin J. The reaction progress is monitored by HPLC. kcat: 0.21±0.01 min^−1; Km: 0.56±0.05 mM.
As shown in FIG. 5A (trace a), 87% conversion of monacolin J to 4 was observed after 10 hours using butyryl-CoA as an acyl donor. […] The observed 87% conversion is likely approaching equilibrium as evident in FIG. 5B. To examine the biochemical nature of the equilibrium conversion, we assayed whether LovD also catalyzes the reverse, hydrolysis reaction.

[2] = substrate: CCC(C)(C)C(=O)SCCC(=O)OC; assay: LovD transacylation assay: acyl transfer from acyl thioester to C8 hydroxyl of monacolin J, HPLC; type: biochemical, Aspergillus terreus; settings: other: monacolin J fixed at 2 mM; DMB-S-MMP 0.2-10 mM, 5% DMSO; pH 7.9
Procedure: We first examined if an acyl-CoA can be used as substrate for the transacylation reaction. The uninterrupted gene of LovD was amplified from A. terreus genomic DNA using splice by overlap extension PCR and was inserted into the pET28a expression vector. Overexpression of soluble, N-terminal 6×His fusion LovD was performed in E. coli strain BL21(DE3)/pAW31. LovD was purified using Nickel-NTA affinity column to homogeneity (final yield˜40 mg/L). The substrate monacolin J (1 mM) was prepared through the LiOH hydrolysis of lovastatin and was added to a reaction mixture containing pure LovD (10 μM) and butyryl-CoA (4 mM), which is a commercially available acyl-CoA that best mimics the natural α-methylbutyrate side chain. The reaction mixture was incubated at room temperature, extracted with ethyl acetate and analyzed by HPLC and LC-MS (FIG. 5).
We assayed the tolerance of LovD towards different acyl substituents by performing the transacylation assay with various commercially available acyl-CoAs (Table 1A). […]
Expression and purification of LovD has been previously described in detail (see, e.g., Xie et al., 2006, Chem Biol 13: 1161-1169). […] The initial velocities (ki) of the acyl substrates were determined with 10 μM LovD, 1 mM monacolin J and 4 mM of the thioester. […] The percent conversion of monacolin J to simvastatin was determined by HPLC analysis (C18). […]

CCC(C)(C)C(=O)OC1CC(O)C=C2C=CC(C)C(CCC(O)CC(O)CC(=O)O)C21 (centres unmarked) [huvastatin]
apparent turnover rate for synthesis from tetra-ol 7 using the corresponding acyl-thioester (LovD): 0.03 min⁻¹

COC(=O)CSC(=O)c1ccccc1 [benzoyl-SMTG]
stability of acyl donor in E. coli culture (E. coli): rapidly degraded
conversion of monacolin J (benzoylation) in vivo (E. coli BL21(DE3)/pAW31; 0.8 mM monacolin J, 4 mM acyl donor, 18° C., within 20 hours post-induction): 40%

CCC(C)(C)C(=O)SCCC(=O)OC [DMB-S-MMP, α-dimethylbutyryl-S-methyl-mercaptopropionate]
conversion of MJ acid to simvastatin acid, whole cell (YT2/pAW31): > 99%
conversion of monacolin J to simvastatin, whole cell (E. coli BL21(DE3)/pAW31; 15 mM monacolin J, 25 mM DMB-S-MMP, cells concentrated 10×, room temperature, 24 hours): 99% and > 99%

B1: LovD (Aspergillus terreus) (protein)
chain: MGSIIDAAAAADPVVLMETAFRKAVKSRQIPGAVIMARDCSGNLNYTRCFGARTVRRDECNQLPPLQVDTPCRLASATKLLTTIMALQCMERGLVDLDETVDRLLPDLSAMPVLEGFDDAGNARLRERRGKITLRHLLTHTSGLSYVFLHPLLREYMAQGHLQSAEKFGIQSRLAPPAVNDPGAEWIYGANLDWAGKLVERATGLDLEQYLQENICAPLGITDMTFKLQQRPDMLARRADQTHRNSADGRLRYDDSVYFRADGEECFGGQGVFSGPGSYMKVLHSLLKRDGLLLQPQTVDLMFQPALEPRLEEQMNQHMDASPHINYGGPMPMVLRRSFGLGGIIALEDLDGENWRRKGSLTFGGGPNIVWQIDPKAGLCTLAFFQLEPWNDPVCRDLTRTFEHAIYAQYQQG
notes: 6xHis (N); made in house; host or cells: E. coli BL21(DE3)/pAW31 (pET28a)
Km [1]: 560 ± 50 µM
kcat [1]: 0.0035 ± 0.00017 s⁻¹
Km [2]: 670 ± 40 µM
